# According to ChEMBL document CHEMBL1134787, “Synthesis and biological studies of novel nucleoside phosphoramidate prodrugs” (J Med Chem, 2001):
# Experiments:
# L1210 [1] = test: Growth inhibition in L1210 mouse leukemia cells after 2 hr treatment; format: functional, cell-based; details: L1210, 2 h
# L1210 [2] = test: Growth inhibition in L1210 mouse leukemia cells after 24 h treatment; format: functional, cell-based; details: L1210, 24 h
# L1210 [3] = test: Growth inhibition in L1210 mouse leukemia cells after 48 hr treatment; format: functional, cell-based; details: L1210, 48 h
# Thymidylate synthase [4] = molecular target: T1, Thymidylate synthase (Mus musculus, UniProt P07607); test: Thymidylate synthase inhibition in L1210 mouse leukemia cells after 2 hr treatment; format: cell-based
# Thymidylate synthase [5] = molecular target: T1, Thymidylate synthase; test: Thymidylate synthase inhibition in thymidine kinase deficient /TK cells after 2 hr treatment
# Thymidylate synthase [6] = molecular target: T1, Thymidylate synthase; test: Thymidylate synthase inhibition in thymidine kinase deficient LM cells after 2 hr treatment; format: cell-based
# Thymidylate synthase [7] = molecular target: T1, Thymidylate synthase; test: Thymidylate synthase inhibition in wild type LM cells after 2 hr treatment; format: cell-based
# L1210 [8] = test: Growth inhibition in L1210 mouse leukemia cells after 8 h treatment; format: functional, cell-based; details: L1210, 8 h
# T1 sequence (P07607 whole entry): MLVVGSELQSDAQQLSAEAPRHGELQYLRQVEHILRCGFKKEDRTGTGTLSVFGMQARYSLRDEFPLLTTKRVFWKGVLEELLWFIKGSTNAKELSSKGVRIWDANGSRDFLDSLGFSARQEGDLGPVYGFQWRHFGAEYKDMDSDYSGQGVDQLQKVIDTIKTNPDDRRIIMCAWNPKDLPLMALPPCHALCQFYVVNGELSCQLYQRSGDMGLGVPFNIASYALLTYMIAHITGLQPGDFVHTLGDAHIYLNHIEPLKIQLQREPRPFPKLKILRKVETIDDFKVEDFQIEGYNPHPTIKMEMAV
Compound,IC50 (L1210 [1]) [nM],IC50 (L1210 [2]) [nM],IC50 (L1210 [3]) [nM],IC50 (Thymidylate synthase [4]) [nM],IC50 (Thymidylate synthase [5]) [nM],IC50 (Thymidylate synthase [6]) [nM],IC50 (Thymidylate synthase [7]) [nM],IC50 (L1210 [8]) [nM]
CN(CCCCCl)P(=O)(OCC1=CC(=O)c2ccccc2C1=O)OC[C@H]1O[C@@H](n2cc(F)c(=O)[nH]c2=O)C[C@@H]1O (some centres not stated),44,3.1,0.63,10,25,5900,230,16
CN(CCBr)P(=O)(OCc1ccc([N+](=O)[O-])o1)OC[C@H]1O[C@@H](n2cc(F)c(=O)[nH]c2=O)C[C@@H]1O (some centres not stated),1030,56,16,–,–,–,–,347
CN(CCCCCl)P(=O)(OCc1ccc([N+](=O)[O-])o1)OC[C@H]1O[C@@H](n2cc(F)c(=O)[nH]c2=O)C[C@@H]1O (some centres not stated),116,7.2,2.3,65,1.9,1060,560,47
O=c1[nH]c(=O)n([C@H]2C[C@H](O)[C@@H](CO)O2)cc1F [FLOXURIDINE],45,4.1,0.64,7.9,20,5400,260,23
O=c1[nH]cc(F)c(=O)[nH]1 [FLUOROURACIL],2500,360,200,–,–,–,–,1010
